Earlier results as cited in EP4520318A1, “TRANSDERMAL THERAPEUTIC SYSTEM OF LUMATEPERONE” (Luye Pharma Switzerland AG, priority 2023, dated 2025).

Conditions: oral administration

**Q.** For `CN1CCN2c3c(cccc31)[C@@H]1CN(CCCC(=O)c3ccc(F)cc3)CC[C@@H]12` [lumateperone, 1-(4-fluoro-phenyl)-4-((6bR, 10aS)-3-methyl-2,3,6b,9,10,10a-hexahydro-1H,7H-pyrido[3',4':4,5]pyrrolo[1,2,3-de]quinoxalin-8-yl)-butan-1-one], which oral bioavailability is on record?
**A.** about 4.4%
